Data from the supplement of paper PMC4858399.

Legend:
Details in all cases: exposure time 48 h
[1] = tested on: Caenorhabditis elegans N2; test: lowest effective concentration for larval growth inhibition (size below effect threshold); higher = less potent
Outline: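 In 96-well plates, 50 C. elegans N2 L1 larvae per well were cultured at 20°C for 48 h in K-medium with killed bacteria and 1% DMSO, plus the chemical at 0.5, 1, 5, 10, 50, 100 or 200 µM. Size was measured as per-worm extinction on a Biosort and log-transformed into well means. Taking the first dose where the plate-adjusted mean size sits under 5.665 and stays there at higher doses gives the lowest effective concentration.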

[2] = tested on: Caenorhabditis elegans N2; test: mean nematode size ln(EXT) after 48 h, plate-adjusted (DMSO control set to 6) (ln(EXT), control-adjusted); higher = larger nematodes / less growth inhibition
Outline: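 Chemical at 0.5–200 µM was tested on synchronised C. elegans N2 L1 larvae grown for 48 h at 20°C in K-medium with killed OP50 and 1% DMSO. Per-worm Biosort extinction, cleared of debris by a growth model, was natural-logged and averaged per well to give mean size. Plates were normalised by subtracting the vehicle control mean and adding 6.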

[3] = tested on: Caenorhabditis elegans N2; test: AC50 for larval growth inhibition (Hill fit); higher = less potent
Outline: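 Synchronised C. elegans N2 L1 larvae, 50 per well in 96-well plates, were grown at 20°C for 48 h in K-medium with killed OP50, 1% DMSO and 0.5–200 µM chemical. Worm size was read on a COPAS Biosort as extinction, log-transformed and averaged per well, and only wells holding at least 10 worms were kept. AC50 was obtained by a constrained Hill fit using weighted genetic-algorithm regression, with out-of-range values censored.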

SMILES	lowest effective concentration [1] [µM]	mean nematode size ln(EXT) (ln) ([2]; 0.5 µM)	mean nematode size ln(EXT) (ln) ([2]; 1 µM)	mean nematode size ln(EXT) (ln) ([2]; 5 µM)	mean nematode size ln(EXT) (ln) ([2]; 10 µM)	mean nematode size ln(EXT) (ln) ([2]; 50 µM)	mean nematode size ln(EXT) (ln) ([2]; 100 µM)	mean nematode size ln(EXT) (ln) ([2]; 200 µM)	AC50 for larval growth inhibition [3] [µM]
Clc1nc(Cl)c(Cl)c(Cl)c1Cl [Pentachloropyridine]	50	5.87	5.81	5.83	5.82	5.6	5.48	5.59	> 200
CCOC(=O)[C@]1(c2ccccc2)Oc2ccccc2[C@@H]1N	10	5.84	5.73	5.71	5.27	4.94	5.43	4.03	56.5
Cn1cnc([N+](=O)[O-])c1Sc1ncnc2[nH]cnc12 [Azathioprine]	200	5.89	5.89	5.93	5.86	5.89	5.84	5.36	> 200
COCC(C)OCC(C)O (centres undefined) [Propanol, 1 (or 2)-(2-methoxymethylethyoxy)-]	200	5.9	5.9	5.88	5.85	5.92	5.82	5.66	> 200
O=C(O)C(F)(F)C(F)(F)C(F)(F)C(F)(F)C(F)(F)C(F)(F)F [Perfluoroheptanoic acid]	100	5.87	5.85	5.88	5.83	5.74	5.42	5.57	> 200
ClC1=C(Cl)C2(Cl)C3C4C=CC(C4)C3C1(Cl)C2(Cl)Cl (centres undefined) [Aldrin]	1	5.97	5.64	4.59	3.88	3.6	3.76	3.25	3.92
O=C(O)C(F)(F)C(F)(F)C(F)(F)C(F)(F)C(F)(F)C(F)(F)C(F)(F)C(F)(F)F [Perfluorononanoic acid]	10	5.85	5.84	5.81	5.61	4.27	3.92	3.1	39
Cc1cc(C)nc(Nc2ccccc2)n1 [Pyrimethanil]	200	6	5.86	5.84	5.84	5.68	6.12	5.4	184
CCCCCCCCCCCC(=O)OC [Methyl laurate]	200	5.77	5.99	5.92	5.94	5.74	5.82	4.96	> 200
Cc1c(C(=O)O)c(O)cc2c1C(=O)c1c(O)c([C@@H]3O[C@H](CO)[C@@H](O)[C@H](O)[C@H]3O)c(O)c(O)c1C2=O [Carminic acid]	100	5.97	5.92	5.91	5.96	5.97	5.46	–	115
CN=C=S [Methyl isothiocyanate]	200	6.14	6.37	6.06	6.02	5.96	6.02	5.06	> 200
C=CC(=O)OCCCCCC(C)C [Isooctyl acrylate]	200	5.42	5.47	5.59	5.64	5.7	5.68	5.52	> 200
CC(C)COC(=O)CCCCC(=O)OCC(C)C [Diisobutyl adipate]	100	5.93	5.89	5.73	5.85	5.74	4.35	5.38	53.6
Cc1cnc(C2=NC(=O)C(C)(C(C)C)N2)c(C(=O)O)c1 (centres undefined) [Imazapic]	50	5.98	6.06	6.04	6.23	5.45	4.31	3.54	79.6
COC(=O)C(C)Oc1ccc(Oc2ccc(Cl)cc2Cl)cc1 (centres undefined) [Diclofop-methyl]	50	6.06	6.74	6	5.92	5.56	5.39	4.62	> 200
O=C(CCCN1CCC(O)(c2ccc(Cl)cc2)CC1)c1ccc(F)cc1 [Haloperidol]	10	5.95	5.85	5.93	5.66	4.99	4.71	4.44	43.3
COc1ccc(OC(F)(F)F)cc1CN[C@H]1CCCN[C@H]1c1ccccc1	50	6.04	5.82	5.68	5.67	5.39	4.71	4.55	185
CN(C)NC(=O)CCC(=O)O [Daminozide]	200	6.43	6.07	6.34	6.17	6	6.01	5.44	> 200
NC(=O)N(O)[C@@H]1COc2cc(OCc3ccccc3)ccc21	200	5.86	5.87	5.82	5.77	5.84	5.81	5.59	> 200
N#Cc1nn(-c2c(Cl)cc(C(F)(F)F)cc2Cl)c(N)c1[S+]([O-])C(F)(F)F (centres undefined) [Fipronil]	10	5.96	5.84	5.92	5.65	5.59	5.52	5.17	> 200
